Reference: PubChem BioAssay (NCI)
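Test compounds were applied to cells in 96-well plates for 48 hours at 5 doses. GI50 = concentration required for 50% inhibition of growth. TGI is the concentration that stops growth completely.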

Legend:
Test in all cases: growth of human tumour cells (NCI), 48 h
786-0 renal = tested on: 786-0 renal
A498 renal = tested on: A498 renal
A549 NSCLC = tested on: A549 NSCLC
ACHN renal = tested on: ACHN renal
BT-549 breast = tested on: BT-549 breast
CAKI-1 renal = tested on: CAKI-1 renal
CCRF-CEM leukemia = tested on: CCRF-CEM leukemia
COLO 205 colon = tested on: COLO 205 colon
DU-145 prostate = tested on: DU-145 prostate
EKVX NSCLC = tested on: EKVX NSCLC
HCC-2998 colon = tested on: HCC-2998 colon
HCT-116 colon = tested on: HCT-116 colon
HCT-15 colon = tested on: HCT-15 colon
HL-60(TB) leukemia = tested on: HL-60(TB) leukemia
HOP-62 NSCLC = tested on: HOP-62 NSCLC
HOP-92 NSCLC = tested on: HOP-92 NSCLC
HS 578T breast = tested on: HS 578T breast
HT29 colon = tested on: HT29 colon
IGROV1 ovarian = tested on: IGROV1 ovarian
K-562 leukemia = tested on: K-562 leukemia
KM12 colon = tested on: KM12 colon
LOX IMVI melanoma = tested on: LOX IMVI melanoma
M14 melanoma = tested on: M14 melanoma
MALME-3M melanoma = tested on: MALME-3M melanoma
MCF7 breast = tested on: MCF7 breast
MDA-MB-231 breast = tested on: MDA-MB-231 breast
MDA-MB-435 = tested on: MDA-MB-435
MOLT-4 leukemia = tested on: MOLT-4 leukemia
NCI-H226 lung = tested on: NCI-H226 lung
NCI-H23 lung = tested on: NCI-H23 lung
NCI-H460 lung = tested on: NCI-H460 lung
NCI-H522 lung = tested on: NCI-H522 lung
NCI/ADR-RES ovarian = tested on: NCI/ADR-RES ovarian
OVCAR-3 ovarian = tested on: OVCAR-3 ovarian
OVCAR-4 ovarian = tested on: OVCAR-4 ovarian
OVCAR-5 ovarian = tested on: OVCAR-5 ovarian
OVCAR-8 ovarian = tested on: OVCAR-8 ovarian
PC-3 prostate = tested on: PC-3 prostate
RPMI-8226 leukemia = tested on: RPMI-8226 leukemia
RXF 393 renal = tested on: RXF 393 renal
SF-268 CNS = tested on: SF-268 CNS
SF-295 CNS = tested on: SF-295 CNS
SF-539 CNS = tested on: SF-539 CNS
SK-MEL-2 melanoma = tested on: SK-MEL-2 melanoma
SK-MEL-28 melanoma = tested on: SK-MEL-28 melanoma
SK-MEL-5 melanoma = tested on: SK-MEL-5 melanoma
SK-OV-3 ovarian = tested on: SK-OV-3 ovarian
SN12C renal = tested on: SN12C renal
SNB-19 CNS = tested on: SNB-19 CNS
SNB-75 CNS = tested on: SNB-75 CNS
SR leukemia = tested on: SR leukemia
SW-620 colon = tested on: SW-620 colon
T-47D breast = tested on: T-47D breast
TK-10 renal = tested on: TK-10 renal
U251 CNS = tested on: U251 CNS
UACC-257 melanoma = tested on: UACC-257 melanoma
UACC-62 melanoma = tested on: UACC-62 melanoma
UO-31 renal = tested on: UO-31 renal

Question: For `COc1ccc2nc3ccccc3c(NCc3ccc(F)cc3)c2c1`, which GI50 (786-0 renal) is on record?
Answer: 1870 nM

Question: And the TGI (786-0 renal)?
Answer: 6820 nM

Question: What about the GI50 (A498 renal) of the same compound?
Answer: 1620 nM

Question: And the TGI (A498 renal)?
Answer: 5740 nM

Question: And the GI50 (A549 NSCLC)?
Answer: 1990 nM

Question: And the TGI (A549 NSCLC)?
Answer: 9890 nM

Question: And the GI50 (ACHN renal)?
Answer: 1820 nM

Question: What about the TGI (ACHN renal) of the same compound?
Answer: 6680 nM

Question: What about the GI50 (BT-549 breast) of the same compound?
Answer: 4750 nM

Question: And the TGI (BT-549 breast)?
Answer: 11400 nM

Question: What about the GI50 (CAKI-1 renal) of the same compound?
Answer: 1730 nM

Question: What about the TGI (CAKI-1 renal) of the same compound?
Answer: 7050 nM

Question: And the GI50 (CCRF-CEM leukemia)?
Answer: 2060 nM

Question: What about the TGI (CCRF-CEM leukemia) of the same compound?
Answer: 23400 nM

Question: And the GI50 (COLO 205 colon)?
Answer: 1110 nM

Question: And the TGI (COLO 205 colon)?
Answer: 2780 nM

Question: What about the GI50 (DU-145 prostate) of the same compound?
Answer: 2090 nM

Question: What about the TGI (DU-145 prostate) of the same compound?
Answer: 7040 nM

Question: What about the GI50 (EKVX NSCLC) of the same compound?
Answer: 2160 nM

Question: What about the TGI (EKVX NSCLC) of the same compound?
Answer: 7950 nM

Question: What about the GI50 (HCC-2998 colon) of the same compound?
Answer: 1000 nM

Question: And the TGI (HCC-2998 colon)?
Answer: 2100 nM

Question: And the GI50 (HCT-116 colon)?
Answer: 1750 nM

Question: And the TGI (HCT-116 colon)?
Answer: 6500 nM

Question: What about the GI50 (HCT-15 colon) of the same compound?
Answer: 1540 nM

Question: And the TGI (HCT-15 colon)?
Answer: 5230 nM

Question: What about the GI50 (HL-60(TB) leukemia) of the same compound?
Answer: 1170 nM

Question: What about the TGI (HL-60(TB) leukemia) of the same compound?
Answer: 2800 nM

Question: What about the GI50 (HOP-62 NSCLC) of the same compound?
Answer: 2340 nM

Question: And the TGI (HOP-62 NSCLC)?
Answer: 10900 nM

Question: And the GI50 (HOP-92 NSCLC)?
Answer: 1390 nM

Question: What about the TGI (HOP-92 NSCLC) of the same compound?
Answer: 6600 nM

Question: And the GI50 (HS 578T breast)?
Answer: 2220 nM

Question: And the TGI (HS 578T breast)?
Answer: 12100 nM

Question: What about the GI50 (HT29 colon) of the same compound?
Answer: 1480 nM

Question: And the TGI (HT29 colon)?
Answer: 5190 nM

Question: And the GI50 (IGROV1 ovarian)?
Answer: 1800 nM

Question: And the TGI (IGROV1 ovarian)?
Answer: 6650 nM

Question: What about the GI50 (K-562 leukemia) of the same compound?
Answer: 1520 nM

Question: What about the TGI (K-562 leukemia) of the same compound?
Answer: 6940 nM

Question: And the GI50 (KM12 colon)?
Answer: 2420 nM

Question: What about the TGI (KM12 colon) of the same compound?
Answer: 8880 nM

Question: And the GI50 (LOX IMVI melanoma)?
Answer: 841 nM

Question: What about the TGI (LOX IMVI melanoma) of the same compound?
Answer: 1710 nM

Question: What about the GI50 (M14 melanoma) of the same compound?
Answer: 2230 nM

Question: And the TGI (M14 melanoma)?
Answer: 8180 nM

Question: And the GI50 (MALME-3M melanoma)?
Answer: 1460 nM

Question: What about the TGI (MALME-3M melanoma) of the same compound?
Answer: 5380 nM

Question: And the GI50 (MCF7 breast)?
Answer: 1170 nM

Question: What about the TGI (MCF7 breast) of the same compound?
Answer: 3520 nM

Question: What about the GI50 (MDA-MB-231 breast) of the same compound?
Answer: 1850 nM

Question: What about the TGI (MDA-MB-231 breast) of the same compound?
Answer: 7260 nM

Question: And the GI50 (MDA-MB-435)?
Answer: 2140 nM

Question: What about the TGI (MDA-MB-435) of the same compound?
Answer: 8260 nM

Question: And the GI50 (MOLT-4 leukemia)?
Answer: 1660 nM

Question: What about the TGI (MOLT-4 leukemia) of the same compound?
Answer: 10400 nM

Question: What about the GI50 (NCI-H226 lung) of the same compound?
Answer: 1810 nM

Question: And the TGI (NCI-H226 lung)?
Answer: 9280 nM

Question: What about the GI50 (NCI-H23 lung) of the same compound?
Answer: 1890 nM

Question: What about the TGI (NCI-H23 lung) of the same compound?
Answer: 8460 nM

Question: And the GI50 (NCI-H460 lung)?
Answer: 1780 nM

Question: And the TGI (NCI-H460 lung)?
Answer: 6180 nM

Question: What about the GI50 (NCI-H522 lung) of the same compound?
Answer: 2060 nM

Question: And the TGI (NCI-H522 lung)?
Answer: 9380 nM

Question: What about the GI50 (NCI/ADR-RES ovarian) of the same compound?
Answer: 1820 nM

Question: What about the TGI (NCI/ADR-RES ovarian) of the same compound?
Answer: 8240 nM

Question: What about the GI50 (OVCAR-3 ovarian) of the same compound?
Answer: 2250 nM

Question: And the TGI (OVCAR-3 ovarian)?
Answer: 7810 nM

Question: What about the GI50 (OVCAR-4 ovarian) of the same compound?
Answer: 2270 nM

Question: What about the TGI (OVCAR-4 ovarian) of the same compound?
Answer: 8230 nM

Question: What about the GI50 (OVCAR-5 ovarian) of the same compound?
Answer: 2250 nM

Question: And the TGI (OVCAR-5 ovarian)?
Answer: 8210 nM

Question: And the GI50 (OVCAR-8 ovarian)?
Answer: 2000 nM

Question: What about the TGI (OVCAR-8 ovarian) of the same compound?
Answer: 13600 nM

Question: What about the GI50 (PC-3 prostate) of the same compound?
Answer: 1960 nM

Question: What about the TGI (PC-3 prostate) of the same compound?
Answer: 8010 nM

Question: What about the GI50 (RPMI-8226 leukemia) of the same compound?
Answer: 1240 nM

Question: And the TGI (RPMI-8226 leukemia)?
Answer: 3060 nM

Question: What about the GI50 (RXF 393 renal) of the same compound?
Answer: 1130 nM

Question: What about the TGI (RXF 393 renal) of the same compound?
Answer: 3100 nM

Question: And the GI50 (SF-268 CNS)?
Answer: 2200 nM

Question: And the TGI (SF-268 CNS)?
Answer: 8710 nM

Question: And the GI50 (SF-295 CNS)?
Answer: 1580 nM

Question: What about the TGI (SF-295 CNS) of the same compound?
Answer: 6480 nM

Question: What about the GI50 (SF-539 CNS) of the same compound?
Answer: 1760 nM

Question: What about the TGI (SF-539 CNS) of the same compound?
Answer: 6540 nM

Question: What about the GI50 (SK-MEL-2 melanoma) of the same compound?
Answer: 3190 nM

Question: What about the TGI (SK-MEL-2 melanoma) of the same compound?
Answer: 10400 nM

Question: And the GI50 (SK-MEL-28 melanoma)?
Answer: 2900 nM

Question: And the TGI (SK-MEL-28 melanoma)?
Answer: 9270 nM

Question: What about the GI50 (SK-MEL-5 melanoma) of the same compound?
Answer: 2000 nM

Question: What about the TGI (SK-MEL-5 melanoma) of the same compound?
Answer: 7200 nM

Question: What about the GI50 (SK-OV-3 ovarian) of the same compound?
Answer: 2790 nM

Question: What about the TGI (SK-OV-3 ovarian) of the same compound?
Answer: 10400 nM

Question: And the GI50 (SN12C renal)?
Answer: 1830 nM

Question: And the TGI (SN12C renal)?
Answer: 7320 nM

Question: What about the GI50 (SNB-19 CNS) of the same compound?
Answer: 2040 nM

Question: And the TGI (SNB-19 CNS)?
Answer: 7620 nM

Question: What about the GI50 (SNB-75 CNS) of the same compound?
Answer: 2460 nM

Question: And the TGI (SNB-75 CNS)?
Answer: 9200 nM

Question: And the GI50 (SR leukemia)?
Answer: 1790 nM

Question: And the TGI (SR leukemia)?
Answer: 5750 nM

Question: And the GI50 (SW-620 colon)?
Answer: 1630 nM

Question: What about the TGI (SW-620 colon) of the same compound?
Answer: 7030 nM

Question: And the GI50 (T-47D breast)?
Answer: 3110 nM

Question: And the TGI (T-47D breast)?
Answer: 13600 nM

Question: And the GI50 (TK-10 renal)?
Answer: 2890 nM

Question: And the TGI (TK-10 renal)?
Answer: 10300 nM

Question: And the GI50 (U251 CNS)?
Answer: 1940 nM

Question: And the TGI (U251 CNS)?
Answer: 7820 nM

Question: And the GI50 (UACC-257 melanoma)?
Answer: 1800 nM

Question: And the TGI (UACC-257 melanoma)?
Answer: 6680 nM

Question: What about the GI50 (UACC-62 melanoma) of the same compound?
Answer: 3480 nM

Question: What about the TGI (UACC-62 melanoma) of the same compound?
Answer: 10200 nM

Question: What about the GI50 (UO-31 renal) of the same compound?
Answer: 962 nM

Question: What about the TGI (UO-31 renal) of the same compound?
Answer: 3960 nM
